What is called EC50 is the concentration at which the effect is half-maximal. By IC50 is commonly meant the midpoint of a concentration-inhibition curve.

The test relates to CEM cells HIV-1 protection, formazan growth assay. Description: NCI AIDS Antiviral Assay. Conditions: for IC50: measured here: growth of uninfected CEM cells. The gist of the method: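 Five concentrations of each compound were applied to infected and uninfected human CEM cells. Protection from HIV-1 was judged from growth measured with a soluble formazan assay.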

The source made the active and inactive calls.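 How the source made its calls: active means compounds giving half or more protection of infected cells from virus-caused growth loss, again on retest; inactive means the rest.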

For the molecule `O=C1C=CC=C/C1=C1\N=C(c2ccccc2OCC(=O)c2ccccc2)SS1`, the EC50 was above 50.1 µM and the IC50 amounted to 4.27 µM.

For `NC(=O)N/N=C1/CCCC/C1=C\c1ccccc1`, the result was inactive.

For `Cc1nn(C)c2nc3ccc(Cl)cc3c(-c3ccccc3)c12`, the EC50 is above 200 µM and the IC50 is above 200 µM.

In the case of `O=[N+]([O-])c1ccc(N/N=C/c2ccc(OCCCCCCCCCCCO)cc2)c([N+](=O)[O-])c1`, the EC50 was above 200 µM and the IC50 came out at 42.7 µM.

Take `C/C(=N\N=C(/[O-])c1ccncc1)c1cccc(/C(C)=N/N=C(\[O-])c2ccncc2)n1.O.[Cu+2]`: the EC50 was above 200 µM and the IC50 worked out at 2.24 µM.

As to `c1ccc(N=c2sc3ccccc3nc2Nc2ccccc2)cc1`, the EC50 was above 200 µM and the IC50 came out at 123 µM.

Consider `CSc1nc2cc(Cl)ccc2c2c1C=NCCN2`, for which the EC50 was above 93.3 µM and the 50% inhibitory concentration (IC50) was 15.8 µM.

Turning to `O=C(O)c1sc(=S)sc1C(=O)O`, the result was inactive.

In the case of `COC(=O)C(=O)C(C(=O)C(=O)Nc1cccc(C(C)=O)c1)c1nc2ccc([N+](=O)[O-])cc2[nH]c1=O` (stereo not drawn), the EC50 was above 64.6 µM and the IC50 is above 64.6 µM.

On to `CC1C(=O)N=C2C(=CN(Cc3ccccc3)c3ccccc32)C(=O)N1C` (stereo not drawn), for which the result was inactive.

Consider `C=C1C(=O)O[C@H]2C3C(=C(C)CC[C@@H]12)C(=O)[C@@H]1OC31C` (stereo partly drawn), for which the EC50 was above 200 µM and the half-inhibitory concentration (IC50) came to 0.676 µM.

In the case of `Cc1ccc(S(=O)(=O)N2CCC(C(=O)O)(c3ccccc3)CC2)cc1`, the EC50 was above 182 µM and the IC50 was above 182 µM.

Regarding `COC(=O)Nc1cn2c(n1)SCC2`, the EC50 is above 200 µM and the IC50 is above 200 µM.

Take `Cc1ccc(OCC2OC(n3cnc4nc(N)nc(Cl)c43)CC2Oc2ccc(C)cc2)cc1` (stereo not drawn): the EC50 is above 200 µM and the half-maximal inhibitory concentration (IC50) is above 200 µM.

On to `CC1=NNC(=O)C1C1CC(c2c[nH]c3ccccc23)=NN=C1Cl` (stereo not drawn), for which the EC50 is above 200 µM and the IC50 came to 93.3 µM.

Consider `N#CC1(C#N)C2CCCCC23OC(=N)C1(C#N)C(c1ccccc1)O3` (stereo not drawn), for which the EC50 was above 200 µM and the IC50 came to 5.62 µM.

As for `COc1ccc(OC)c(NC(=O)C(=O)Nn2c(=S)[nH]c3ccccc3c2=O)c1`, the EC50 was above 631 µM and the IC50 stood at 372 µM.

With `O=C1CN(Cc2ccccc2)CC(=O)N2Cc3ccccc3CN12`, the outcome was inactive.

Consider `Cc1c(N=Nc2cc(N=Nc3ccc(N=Nc4ccc(O)c(C(=O)O)c4)cc3)c(N)cc2N)cccc1S(=O)(=O)O`, for which the EC50 is 25.7 µM and the IC50 is above 100 µM.

As to `Cc1cc(=O)[nH]c(NN2C(Cl)C(=O)C2c2cccc(O)c2)n1` (stereo not drawn), the EC50 was above 295 µM and the IC50 came to 1.86 µM.

With `C/C(=C/OS(=O)(=O)C(F)(F)F)c1ccccc1`, the EC50 was above 200 µM and the IC50 amounted to 57.5 µM.

On to `CCSc1c2ccccc2c(-c2nc(F)nc(F)n2)n1CCc1ccccc1`, for which the EC50 was above 13.2 µM and the IC50 is above 13.2 µM.

Take `C=CCSS(=O)CC=C` (stereo not drawn): the outcome was inactive.

In the case of `C=CCCCCCCCCC(=O)NC(C)C(C)(C)C` (stereo not drawn), the EC50 was above 200 µM and the IC50 was found to be 74.1 µM.

Consider `O=c1c2cccnc2[nH]c2ccc3[nH]ncc3c12`, for which the EC50 is above 200 µM and the IC50 is 50.1 µM.

On to `CCCCN1C(=O)C(NC(C)=O)C1COC(C)(C)C` (stereo not drawn), for which the EC50 is above 479 µM and the IC50 was above 479 µM.

In the case of `O=C1c2c(ccc3c2CCCC3)CC12Cc1ccc3c(c1C2=O)CCCC3`, the EC50 was above 200 µM and the half-maximal inhibitory concentration (IC50) is above 200 µM.

Take `Cc1nc2cc(C(F)(F)F)ccc2[nH]c1=O`: the EC50 is above 200 µM and the IC50 was above 200 µM.

In the case of `NC1CC(=O)c2cc(Br)sc21` (stereo not drawn), the EC50 was above 200 µM and the IC50 was above 200 µM.

Consider `CC(C)(C)C(=O)OCOP(=O)(OCCOCn1cnc2c(=O)[nH]c(N)nc21)OCOC(=O)C(C)(C)C`, for which the result was inactive.

As for `O=[N+]([O-])c1cc2c(cc1O)[nH]c1cccc([N+](=O)[O-])c12`, the EC50 is above 13.8 µM and the IC50 is above 13.8 µM.

As to `O=C(O)/C=C\C(=O)Nn1c(Cc2ccc(Cl)cc2)n[nH]c1=O`, the EC50 was above 200 µM and the IC50 was above 200 µM.

In the case of `CCOc1ccc(NC(=O)C(=O)NO)cc1`, the EC50 is above 302 µM and the IC50 was determined as 178 µM.

In the case of `N#CC(c1ccccc1)N(CCc1ccccc1)C(=O)c1ccc(C(=O)N(CCc2ccccc2)C(C#N)c2ccccc2)cc1` (stereo not drawn), the EC50 was above 200 µM and the IC50 is 28.2 µM.

Take `CC(=O)N(C(=O)CC(=O)N1N=C(C)C(N=Nc2cccc([N+](=O)[O-])c2)C1=O)c1ccc(Cl)cc1` (stereo not drawn): the EC50 is above 170 µM and the IC50 was found to be 72.4 µM.

In the case of `O=C(/C=C/c1ccc(OCCCOc2ccc(/C=C/C(=O)c3ccc(Cl)cc3)cc2)cc1)c1ccc(Cl)cc1`, the EC50 was above 12.9 µM and the IC50 is above 12.9 µM.

As to `CN(C)CC/C=C1/c2ccccc2Sc2ccc(Cl)cc21`, the EC50 was above 200 µM and the IC50 came out at 27.5 µM.

Take `COc1ccc2ccnc(Cc3ccc(OCc4ccccc4)c(OC)c3)c2c1`: the result was inactive.

`Cc1cc(C)c(C(=O)c2cccc(C)c2C(=O)O)c(C)c1` yielded an EC50 above 200 µM and an IC50 above 200 µM.

As to `Cc1cn(CCCCCOC(=O)NC(CCCNC(N)=O)C(=O)O)c(=O)[nH]c1=O` (stereo not drawn), the EC50 is above 200 µM and the IC50 was above 200 µM.

Turning to `O=C1c2ccccc2C(=O)c2c1oc1cc(O)c(Cl)cc21`, the EC50 was above 16.6 µM and the IC50 is above 16.6 µM.

Regarding `Cc1cc(C)c(O)c(CN2CCN(C(C)C)CCN(C(C)C)CC2)c1`, the EC50 is above 47.9 µM and the IC50 worked out at 13.8 µM.

As to `O=[N+]([O-])c1cc(/C=N/NS(=O)(=O)c2ccc(F)cc2)c(O)c([N+](=O)[O-])c1`, the EC50 was above 646 µM and the IC50 stood at 37.2 µM.

Regarding `C[C@@]1(O)C2/C(=N/O)C3CC1(c1ccccc1)CC(/C3=N/O)C2c1ccccc1` (stereo partly drawn), the EC50 is above 100 µM and the IC50 was above 100 µM.

On to `COc1ccc2c(c1)CC1c3c(cc4c(c3-2)OCO4)CCN1C` (stereo not drawn), for which the EC50 is above 589 µM and the concentration for half-maximal inhibition (IC50) is 3.31 µM.

`C=CCC1C(=O)C(C(=O)OC)N2CCc3c([nH]c4ccccc34)C12` (stereo not drawn): the EC50 was above 282 µM and the IC50 was 138 µM.

For the molecule `CCC(C)C(CC)C(N)=O` (stereo not drawn), the EC50 is above 200 µM and the IC50 was above 200 µM.

With `CC(C)C1=CC23CCC4C(C)(C(=O)O)CCCC4(C)C2CC1C1C(=O)N(c2ccc(N4C(=O)C5C6CC7C8(C)CCCC(C)(C(=O)O)C8CCC7(C=C6C(C)C)C5C4=O)cc2)C(=O)C13` (stereo not drawn), the EC50 was above 55 µM and the IC50 is 3.8 µM.

`CCOc1ccccc1N=Nc1ccc2oc(=O)c(C(C)=O)cc2c1`: the EC50 is above 8.13 µM and the IC50 was above 8.13 µM.

Turning to `CCOC(=O)C(C(=O)OCC)=C(N)C(Cl)(Cl)Cl`, the EC50 was above 200 µM and the IC50 turned out to be 42.7 µM.

For the molecule `COc1cccc(N2C(=O)C3c4[nH]c5ccc(C)cc5c4C4CCC(C(C)(C)C)CC4C3C2=O)c1` (stereo not drawn), the EC50 is above 200 µM and the IC50 is 9.55 µM.

In the case of `Nc1ccc(Cc2c(N)[nH]c(=O)[nH]c2=O)cc1`, the EC50 is above 200 µM and the IC50 was above 200 µM.

Consider `CCOC(=O)COc1ccc2c(C)c(CCN(CC)CC)c(=O)oc2c1`, for which the EC50 is above 631 µM and the IC50 was above 631 µM.

For `CC(C)(C)c1cc(C(=O)Nc2cc(Br)c(Br)cc2S(N)(=O)=O)cc(C(C)(C)C)c1O`, the EC50 is above 200 µM and the 50% inhibitory concentration (IC50) is 8.13 µM.

With `O=C(O)c1cccc(S(=O)(=O)NN2C(=O)CSC2c2ccc(Cl)cc2Cl)c1` (stereo not drawn), the EC50 is above 200 µM and the IC50 was determined as 35.5 µM.

For `CC(C)CC(NC(=O)C(Cc1ccccc1)NC(=O)[C@H]1CC[C@H](NC(=O)C(N)Cc2ccc(O)cc2)C1)C(N)=O` (stereo partly drawn), the outcome was inactive.

`O=c1[nH]cc(CN2CCOCC2)c(=O)[nH]1`: the EC50 is above 617 µM and the IC50 is above 617 µM.

For `COc1ccc2c(O)c(C)c(=O)n(C)c2c1`, the EC50 was above 200 µM and the IC50 was above 200 µM.

For `O=C(O)CCC(NC(=O)/C(=C/c1ccccc1)NC(=O)c1ccccc1)C(=O)O` (stereo not drawn), the EC50 is above 200 µM and the IC50 is above 200 µM.

As for `NC(=O)c1[nH]nc(C2OC(CO)C(O)C2O)c1O` (stereo not drawn), the EC50 was above 955 µM and the IC50 was determined as 0.309 µM.

Regarding `CC12Nc3ccccc3N1C(=O)c1ccccc12` (stereo not drawn), the EC50 is above 200 µM and the IC50 was determined as 107 µM.

For `CC(=Nc1ccccc1S)c1c(O)ccc2c(C)cc(=O)oc12`, the EC50 is above 11.5 µM and the IC50 was above 11.5 µM.

As for `NC1c2ccccc2Nc2ccccc21`, the EC50 is above 182 µM and the IC50 amounted to 1.29 µM.

Take `C=CCNC(=O)CN(CC(=O)OC)C1CCCCC1N(CC(=O)OC)CC(=O)OC` (stereo not drawn): the EC50 is above 200 µM and the IC50 is above 200 µM.

With `NN1C(=O)C(CCO)S/C1=N/N=C1/SC(CCO)C(=O)N1N` (stereo not drawn), the EC50 was above 74.1 µM and the IC50 was above 74.1 µM.

Take `O=C1CCC(=O)C(C(=O)CCC(=O)Nc2cccc(Cl)c2)C1` (stereo not drawn): the EC50 is above 562 µM and the IC50 is above 562 µM.

Regarding `CS(=O)(=O)c1ccc(SSc2ccc(S(C)(=O)=O)cc2[N+](=O)[O-])c([N+](=O)[O-])c1`, the outcome was inactive.

Consider `c1ccc(N=C(Nc2ccccc2)N2CCCCC2)cc1`, for which the EC50 is above 200 µM and the IC50 was determined as 77.6 µM.

As for `CC1(C)C(O)CC[C@@]2(C)C1CC[C@]1(C)C2CC=C2[C@@H]3C[C@](C)(C(=O)O)CC[C@]3(C)CCC21C` (stereo partly drawn), the EC50 is above 200 µM and the IC50 is 27.5 µM.

Regarding `CC1COB(c2ccccc2)OCC(C)N1CNC(=O)C1=C(O)C2(O)C(O)=C3C(=O)C4C(O)=CC=CC4C(C)(O)C3CC2C(N(C)C)C1=O` (stereo not drawn), the EC50 was 15.1 µM and the IC50 stood at 19.5 µM.

For the molecule `O=C(/C=C/c1cccs1)c1cccc(C(=O)/C=C/c2cccs2)n1`, the EC50 is above 200 µM and the IC50 was 110 µM.

The record behind these values is PubChem BioAssay AID179 (DTP/NCI, 2004).
